Tested on: 388556-164-R-J1-PDC complex spheroid viability
Test: Anticancer human tumor 388556-164-R-J1-PDC patient-derived colon adenocarcinoma cell line growth inhibition [RAS]
Settings: for IC50: curve of first compound; for viability, T/C: stronger effect = lower value
Method in brief: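 Agents were tested in combination matrices in half-log decrements from a top concentration at or near clinical Cmax (10 microM if undetermined). Targets were multi-cell spheroids of tumour lines plus HUVEC and MSC stromal cells.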

[1] = second compound 0.00316 µM, first compound 0.0316 µM
[2] = second compound 0.00316 µM, first compound 0.1 µM
[3] = second compound 0.00316 µM, first compound 0.316 µM
[4] = second compound 0.00316 µM, first compound 1 µM
[5] = second compound 0.00316 µM, first compound 3.16 µM
[6] = second compound 0.00316 µM, first compound 10 µM
[7] = second compound 0.01 µM, first compound 0.0316 µM
[8] = second compound 0.01 µM, first compound 0.1 µM
[9] = second compound 0.01 µM, first compound 0.316 µM
[10] = second compound 0.01 µM, first compound 1 µM
[11] = second compound 0.01 µM, first compound 3.16 µM
[12] = second compound 0.01 µM, first compound 10 µM
[13] = second compound 0.0316 µM, first compound 0.0316 µM
[14] = second compound 0.0316 µM, first compound 0.1 µM
[15] = second compound 0.0316 µM, first compound 0.316 µM
[16] = second compound 0.0316 µM, first compound 1 µM
[17] = second compound 0.0316 µM, first compound 3.16 µM
[18] = second compound 0.0316 µM, first compound 10 µM
[19] = second compound 0.1 µM, first compound 0.0316 µM
[20] = second compound 0.1 µM, first compound 0.1 µM
[21] = second compound 0.1 µM, first compound 0.316 µM
[22] = second compound 0.1 µM, first compound 1 µM
[23] = second compound 0.1 µM, first compound 3.16 µM
[24] = second compound 0.1 µM, first compound 10 µM
[25] = second compound 0.316 µM, first compound 0.0316 µM
[26] = second compound 0.316 µM, first compound 0.1 µM
[27] = second compound 0.316 µM, first compound 0.316 µM
[28] = second compound 0.316 µM, first compound 1 µM
[29] = second compound 0.316 µM, first compound 3.16 µM
[30] = second compound 0.316 µM, first compound 10 µM
[31] = second compound 1 µM, first compound 0.0316 µM
[32] = second compound 1 µM, first compound 0.1 µM
[33] = second compound 1 µM, first compound 0.316 µM
[34] = second compound 1 µM, first compound 1 µM
[35] = second compound 1 µM, first compound 3.16 µM
[36] = second compound 1 µM, first compound 10 µM
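Note: spheroids exposed to compound for 7 days before readout.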
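Throughout, for viability, T/C: 100% = DMSO vehicle control luminescence.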

`Cc1nc(N2CCC3(CC2)COC(C)C3N)c(CO)nc1Sc1ccnc(N)c1Cl` (stereo unspecified) + C=CC(=O)N1CCN(c2nc(OCC3CCCN3C)nc3c(F)c(-c4nc(N)cc(C)c4C(F)(F)F)c(Cl)cc23)C(C)C1 gave an IC50 (second compound 0.00316 µM) of 2820 nM, an IC50 (second compound 0.01 µM) of 3770 nM and an IC50 (second compound 0.0316 µM) of 6520 nM. The IC50 (second compound 0.1 µM) was 3060 nM, the IC50 (second compound 0.316 µM) was 3340 nM and the IC50 (second compound 1 µM) was 1520 nM. The viability, T/C [1] was 88.3%, the viability, T/C [2] was 83.7% and the viability, T/C [3] was 72.8%. For the same compound, the viability, T/C [4] was 58.3%, the viability, T/C [5] was 49.2% and the viability, T/C [6] was 45.3%. The viability, T/C [7] was 94.7%, the viability, T/C [8] was 82.4% and the viability, T/C [9] was 75.7%. It also gave a viability, T/C [10] of 61.7%, a viability, T/C [11] of 49.7% and a viability, T/C [12] of 43.7%. For the same compound, the viability, T/C [13] was 86.1%, the viability, T/C [14] was 79.9% and the viability, T/C [15] was 73.3%. The viability, T/C [16] was 63.3%, the viability, T/C [17] was 55.3% and the viability, T/C [18] was 47%. The viability, T/C [19] was 95.5%, the viability, T/C [20] was 83.5% and the viability, T/C [21] was 70.5%. It also gave a viability, T/C [22] of 60.9%, a viability, T/C [23] of 49.6% and a viability, T/C [24] of 40.6%. It also gave a viability, T/C [25] of 97.7%, a viability, T/C [26] of 78% and a viability, T/C [27] of 70.9%. The viability, T/C [28] was 63.8%, the viability, T/C [29] was 54.1% and the viability, T/C [30] was 36.9%. The viability, T/C [31] was 91.2%, the viability, T/C [32] was 92.5% and the viability, T/C [33] was 68.5%. The viability, T/C [34] was 56.7%, the viability, T/C [35] was 42.3% and the viability, T/C [36] was 39.8%.
With `NC1c2ccccc2OC12CCN(c1cnc3c(N4CCCc5ncccc54)n[nH]c3n1)CC2` (stereo unspecified) + C=CC(=O)N1CCN(c2nc(OCC3CCCN3C)nc3c(F)c(-c4nc(N)cc(C)c4C(F)(F)F)c(Cl)cc23)C(C)C1 the IC50 (second compound 0.00316 µM) was 180 nM, the IC50 (second compound 0.01 µM) was 152 nM and the IC50 (second compound 0.0316 µM) was 165 nM. It also gave an IC50 (second compound 0.1 µM) of 230 nM, an IC50 (second compound 0.316 µM) of 190 nM and an IC50 (second compound 1 µM) of 240 nM. The viability, T/C [1] was 63.9%, the viability, T/C [2] was 55.6% and the viability, T/C [3] was 45.8%. For the same compound, the viability, T/C [4] was 39.4%, the viability, T/C [5] was 44.6% and the viability, T/C [6] was 38.8%. It also gave a viability, T/C [7] of 67.4%, a viability, T/C [8] of 55.4% and a viability, T/C [9] of 39.1%. It also gave a viability, T/C [10] of 39.7%, a viability, T/C [11] of 44.2% and a viability, T/C [12] of 38.8%. It also gave a viability, T/C [13] of 71.1%, a viability, T/C [14] of 54.1% and a viability, T/C [15] of 44.1%. For the same compound, the viability, T/C [16] was 38.7%, the viability, T/C [17] was 39.8% and the viability, T/C [18] was 32.9%. For the same compound, the viability, T/C [19] was 70%, the viability, T/C [20] was 59.5% and the viability, T/C [21] was 45.7%. For the same compound, the viability, T/C [22] was 40.5%, the viability, T/C [23] was 40.1% and the viability, T/C [24] was 35.6%. The viability, T/C [25] was 69.2%, the viability, T/C [26] was 54.6% and the viability, T/C [27] was 45.3%. For the same compound, the viability, T/C [28] was 41.8%, the viability, T/C [29] was 40.6% and the viability, T/C [30] was 35.5%. The viability, T/C [31] was 70.3%, the viability, T/C [32] was 58.3% and the viability, T/C [33] was 45.9%. It also gave a viability, T/C [34] of 40%, a viability, T/C [35] of 34.4% and a viability, T/C [36] of 28.1%.
For `Nc1ccn(C2OC(CO)C(O)C2(F)F)c(=O)n1` (stereo unspecified) + C=CC(=O)N1CCN(c2nc(OCC3CCCN3C)nc3c(F)c(-c4nc(N)cc(C)c4C(F)(F)F)c(Cl)cc23)C(C)C1, the IC50 (second compound 0.00316 µM) was > 1000 nM, the IC50 (second compound 0.01 µM) was > 1000 nM and the IC50 (second compound 0.0316 µM) was > 1000 nM. The IC50 (second compound 0.1 µM) was > 1000 nM, the IC50 (second compound 0.316 µM) was > 1000 nM and the IC50 (second compound 1 µM) was > 1000 nM. It also gave a viability, T/C (second compound 0.00316 µM, first compound 0.00316 µM) of 106%, a viability, T/C (second compound 0.00316 µM, first compound 0.01 µM) of 90.6% and a viability, T/C [1] of 82.7%. The viability, T/C [2] was 79.4%, the viability, T/C [3] was 60.9% and the viability, T/C [4] was 75.8%. It also gave a viability, T/C (second compound 0.01 µM, first compound 0.00316 µM) of 94.3%, a viability, T/C (second compound 0.01 µM, first compound 0.01 µM) of 89.6% and a viability, T/C [7] of 76.3%. The viability, T/C [8] was 79.3%, the viability, T/C [9] was 70% and the viability, T/C [10] was 68.3%. For the same compound, the viability, T/C (second compound 0.0316 µM, first compound 0.00316 µM) was 104%, the viability, T/C (second compound 0.0316 µM, first compound 0.01 µM) was 87.1% and the viability, T/C [13] was 78.2%. It also gave a viability, T/C [14] of 71.6%, a viability, T/C [15] of 76.9% and a viability, T/C [16] of 68.4%. The viability, T/C (second compound 0.1 µM, first compound 0.00316 µM) was 87.4%, the viability, T/C (second compound 0.1 µM, first compound 0.01 µM) was 85.3% and the viability, T/C [19] was 74%. It also gave a viability, T/C [20] of 65.6%, a viability, T/C [21] of 73.8% and a viability, T/C [22] of 67.1%. It also gave a viability, T/C (second compound 0.316 µM, first compound 0.00316 µM) of 92.8%, a viability, T/C (second compound 0.316 µM, first compound 0.01 µM) of 95.9% and a viability, T/C [25] of 75.5%. The viability, T/C [26] was 74.8%, the viability, T/C [27] was 72.1% and the viability, T/C [28] was 67.3%. The viability, T/C (second compound 1 µM, first compound 0.00316 µM) was 97.2%, the viability, T/C (second compound 1 µM, first compound 0.01 µM) was 82.7% and the viability, T/C [31] was 80.2%. For the same compound, the viability, T/C [32] was 76.2%, the viability, T/C [33] was 72% and the viability, T/C [34] was 68.9%.

Reference: PubChem BioAssay AID2060907 (Molecular Pharmacology Branch, DTP, NCI, 2025)
